Results as given in US20200085749A1, “IMMEDIATE-RELEASE TABLETS CONTAINING A DRUG AND PROCESSES FOR FORMING THE TABLETS” (Genentech, Inc., priority 2015, published 2020).

Columns and labels:
[1] = system: BRAF^v600 mutation-positive advance melanoma; settings: cited from earlier work
[2] = system: unresectable or metastatic melanoma that is BRAF^v600E mutation-positive; settings: cited from earlier work
[3] = 24-hour solubility of active drug in buffers across the physiological pH range; assay type: physicochemical; settings: 37° C.
Procedure: Cobimetinib is considered to be a high-solubility, moderate-to-high permeability compound with in vivo absorption/pharmacokinetic characteristics consistent with Biopharmaceutics Classification System (BCS) Class 1. […] An active drug is considered highly soluble when the highest dose strength is soluble in <250 mL water over a pH range of 1 to 7.5.

| Solubility ([3]; 50 mM Acetate pH 4.5 (pH measured 4.5)) [µg/mL] | Solubility ([3]; 50 mM Phosphate pH 6.8 (pH measured 6.8)) [µg/mL] | Solubility ([3]; 50 mM Phosphate pH 7.5 (pH measured 7.5)) [µg/mL] | Solubility ([3]; 0.1M HCl pH 1.1 (pH measured 1.9)) [µg/mL] | Solubility ([3]; FaSSIF pH 6.5 (pH measured 6.4)) [µg/mL] | Solubility ([3]; FeSSIF pH 5.0 (pH measured 5.0)) [µg/mL] | Solubility ([3]; Water, pH Neutral (pH measured 7.5)) [µg/mL] | Compound | median progression-free survival [1] [months] | decrease in the risk of disease progression or death ([2]; compared with dacarbazine) [%] | reduction in the risk of death ([2]; compared with dacarbazine) [%] | response rates ([2]; human, in vivo) |
| --- | --- | --- | --- | --- | --- | --- | --- | --- | --- | --- | --- |
|  |  |  |  |  |  |  | CCCS(=O)(=O)Nc1ccc(F)c(C(=O)c2c[nH]c3ncc(-c4ccc(Cl)cc4)cc23)c1F [vemurafenib, propane-1-sulfonic acid {3-[5-(4-chlorophenyl)-1H-pyrrolo[2,3-b]pyridine-3-carbonyl]-2,4-difluoro-phenyl}-amide] | 6.2 | 74 | 63 | greater than 50% |
| 1080 | 780 | 730 | 48210 | 480 | 4130 | 720 | (S)-[3,4-Difluoro-2-(2-fluoro-4-iodoanilino)phenyl]{3-hydroxy-3-[(2S)-piperidin-2-yl]azetidin-1-yl} methanone [cobimetinib hemifumarate] |  |  |  |  |
